The Biogen ADME set (Fang et al. 2023)
≈ marks a conversion by molar mass, not a printed value.

Settings: for aqueous solubility: pH 6.8

Row | SMILES | MDR1-MDCK efflux ratio | intrinsic clearance, human liver microsomes | intrinsic clearance, rat liver microsomes | aqueous solubility | fraction unbound, human plasma | fraction unbound, rat plasma
1 | CN1CCN(CCOc2ccccc2N)CC1 | 0.548 | 8.03 mL/min/kg | 130 mL/min/kg | 38.1 µg/mL (≈ 162 µM) | – | –
2 | CCCNC(=O)C1(NCc2csnn2)CCCCC1 | 2.87 | 7.42 mL/min/kg | 152 mL/min/kg | – | – | –
3 | COc1ccc(C(C)(C)C)cc1NC(=O)C1(C#N)CCCC1 | 0.478 | – | – | 0.3 µg/mL (≈ 0.999 µM) | – | –
4 | c1ccc(NCc2ccc3c(c2)OCCCO3)nc1 | 0.701 | 66.5 mL/min/kg | 7100 mL/min/kg | – | – | –
5 | Nc1ccc(N2C(=O)CCCC2=O)cc1 | – | – | – | 28 µg/mL (≈ 137 µM) | – | –
6 | O=C(CSC1CCCC1)N1CCC(Cn2cccn2)CC1 | 1.6 | 74.6 mL/min/kg | 747 mL/min/kg | 63.3 µg/mL (≈ 206 µM) | – | –
7 | Cc1cc(C)nc(NC(=O)N(C)C2CCC2)c1 | 0.503 | 92.6 mL/min/kg | 177 mL/min/kg | 41.2 µg/mL (≈ 177 µM) | – | –
8 | CN1CCCN(C(=O)NCCOc2ccc3c(c2)OCO3)CC1 | 19.9 | ≤ 4.74 mL/min/kg | 20.3 mL/min/kg | 70 µg/mL (≈ 218 µM) | – | –
9 | C[C@H]1CN2C[C@H](O)C[C@@H]2CN1Cc1cccc2ccccc12 | 1.69 | 24.2 mL/min/kg | 1910 mL/min/kg | – | – | –
10 | Cc1ccccc1-c1nc(Cn2ccnc2C(C)C)c(C)o1 | 0.732 | 310 mL/min/kg | 2720 mL/min/kg | 49 µg/mL (≈ 166 µM) | – | –
11 | Cc1cc(Nc2ccc(F)cn2)cc(C2CCN(C(=O)CCn3ncc4ccccc43)C2)n1 (stereo not drawn) | 60 | 345 mL/min/kg | 2300 mL/min/kg | – | – | –
12 | O=C1c2ccccc2C(=O)N1CCNc1ccc(F)cc1 | 0.43 | 87.6 mL/min/kg | 615 mL/min/kg | – | – | –
13 | Cc1nc(N2CCNCC2)c2cnn(C)c2n1 | 15.3 | ≤ 4.74 mL/min/kg | 15.1 mL/min/kg | – | – | –
14 | CC1(c2nnc(-c3cc(-c4ccccc4)n[nH]3)o2)CCOCC1 | 1.21 | 13.5 mL/min/kg | 179 mL/min/kg | 18.4 µg/mL (≈ 59.1 µM) | – | –
15 | COc1ccc(C(=O)c2ccc(Cl)cc2)c(OC)c1 | 0.522 | 87.4 mL/min/kg | 1750 mL/min/kg | – | – | –
16 | CCn1cc(C(=O)O)c(=O)c2c(N)c(F)c(NC3CCCCC3)cc21 | – | 8.72 mL/min/kg | 112 mL/min/kg | – | 0.0268 | 0.0267
17 | O=C(NC12CCCC1NCC2)c1ccc(-c2cn[nH]c2)cc1 (stereo not drawn) | 2.29 | ≤ 4.74 mL/min/kg | – | – | 1 | –
18 | CCC1(O)CN(c2ncccc2C#N)C1 | 0.523 | ≤ 4.74 mL/min/kg | 25 mL/min/kg | 22.7 µg/mL (≈ 112 µM) | – | –
19 | CN1CCN(C(=O)C2(NC(=O)c3cc(Cl)c4c(c3)OCO4)CCCC2)CC1 | – | ≤ 4.74 mL/min/kg | 37.7 mL/min/kg | 79 µg/mL (≈ 201 µM) | – | –
20 | CC1(c2ccn[nH]2)CCN(Cc2ccco2)CC1 | 0.904 | ≤ 4.74 mL/min/kg | 76.4 mL/min/kg | 21 µg/mL (≈ 85.5 µM) | – | –
21 | COCC(=O)NC1(C#Cc2ccc(NC(=O)C3CC3)nc2)CCCCC1 | – | 16.7 mL/min/kg | 153 mL/min/kg | – | – | –
22 | c1ccc(OCc2cc(CC3(NCc4cnc5ccccc5c4)COC3)no2)cc1 | 1.29 | 153 mL/min/kg | 1270 mL/min/kg | 13.1 µg/mL (≈ 32.6 µM) | – | –
23 | CCc1nnc(Oc2cccnc2)c(C#N)c1CC | 0.781 | 4.94 mL/min/kg | 21.6 mL/min/kg | 30.5 µg/mL (≈ 120 µM) | – | –
24 | CC(C)[C@@H](C(=O)Nc1nc2ccccc2[nH]1)N1Cc2ccccc2C1=O | – | ≤ 4.74 mL/min/kg | 262 mL/min/kg | 11 µg/mL (≈ 31.6 µM) | – | –
25 | CCN(CC(N)=O)CC(=O)N1c2ccccc2CCc2ccccc21 | 28.9 | 40.9 mL/min/kg | 674 mL/min/kg | – | – | –
26 | CCc1cc(CN(C)c2nccc(-c3ccc(C)nc3C)n2)on1 | 0.673 | 89.4 mL/min/kg | 1690 mL/min/kg | 36.4 µg/mL (≈ 113 µM) | – | –

Now from value to molecule:

Row | MDR1-MDCK efflux ratio | intrinsic clearance, human liver microsomes | intrinsic clearance, rat liver microsomes | aqueous solubility | fraction unbound, human plasma | fraction unbound, rat plasma | SMILES
27 | 4.62 | ≤ 4.74 mL/min/kg | 78.5 mL/min/kg | 39.1 µg/mL (≈ 131 µM) | – | – | Cc1nc2cc(NC(=O)CCc3c(C)noc3C)ccc2o1
28 | – | ≤ 4.74 mL/min/kg | ≤ 10.7 mL/min/kg | 49.6 µg/mL (≈ 198 µM) | – | – | COc1cc2c(c(OC)c1OC)CCNC(=O)C2
29 | 1.25 | ≤ 4.74 mL/min/kg | 27.1 mL/min/kg | 23.3 µg/mL (≈ 103 µM) | – | – | CC(C)NC(=O)Cn1nnnc1C(C)(C)C
30 | 0.465 | 105 mL/min/kg | 310 mL/min/kg | – | – | – | Cc1cc(Cl)n(-c2ccc(C#N)cc2)n1
31 | 0.804 | 39 mL/min/kg | 438 mL/min/kg | 8.9 µg/mL (≈ 24.6 µM) | – | – | CC(=O)Nc1ccc(Oc2ncnc3scc(-c4ccccc4)c23)cc1
32 | 67.6 | ≤ 4.74 mL/min/kg | 601 mL/min/kg | – | – | – | Cc1nc2cc(-c3nccn3C)nn2c(NCCCN(C)C)c1C
33 | 10.3 | ≤ 4.74 mL/min/kg | ≤ 10.7 mL/min/kg | 57.7 µg/mL (≈ 199 µM) | – | – | CCNC(=O)N1CCc2nc3ccc(F)cn3c(=O)c2C1
34 | 5.19 | 183 mL/min/kg | 1330 mL/min/kg | 19.8 µg/mL (≈ 47 µM) | – | – | O=c1c2cccn2c2ccccc2n1CCCN1CCC(c2ccc(Cl)cc2)CC1
35 | 0.492 | 18 mL/min/kg | 448 mL/min/kg | 63.8 µg/mL (≈ 235 µM) | – | – | Cc1noc(C2CCN(CCc3ccccc3)CC2)n1
36 | – | 7.59 mL/min/kg | 25.3 mL/min/kg | – | – | – | Nc1ccc2c(c1)ncn2-c1ccccc1
37 | 60.4 | 7.53 mL/min/kg | 103 mL/min/kg | 5.95 µg/mL (≈ 15.8 µM) | 0.004 | 0.00181 | COc1ccccc1-c1cc(NC(=O)c2cccc(N3CCNC3=O)c2)[nH]n1
38 | 0.747 | 5.81 mL/min/kg | 127 mL/min/kg | 42.5 µg/mL (≈ 122 µM) | – | – | O=C(c1ccc(-n2cccn2)nc1)N1CCN(c2ccccc2O)CC1
39 | 61.4 | 129 mL/min/kg | 107 mL/min/kg | 48.2 µg/mL | – | – | CCN1CCN(Cc2ccc(Nc3ncc(F)c(-c4cc(F)c5nc(C)n(C(C)C)c5c4)n3)nc2)CC1.CS(=O)(=O)O
40 | 35.9 | ≤ 4.74 mL/min/kg | 51.3 mL/min/kg | – | – | – | O=c1c2ccccc2cnn1Cc1cccc(OCC(F)(F)F)c1
41 | – | – | – | 41 µg/mL (≈ 143 µM) | – | – | NC(=O)Cc1nc(-c2ccc(Cl)cc2Cl)cs1
42 | 0.818 | 33.7 mL/min/kg | 342 mL/min/kg | 52.3 µg/mL (≈ 168 µM) | – | – | COc1cccc(CC(=O)Nc2ccc3nc(C)sc3c2)c1

Row | MDR1-MDCK efflux ratio | intrinsic clearance, human liver microsomes | intrinsic clearance, rat liver microsomes | aqueous solubility | fraction unbound, human plasma | fraction unbound, rat plasma | SMILES
43 | 11.2 | 73.7 mL/min/kg | 512 mL/min/kg | – | – | – | O=C(CCCC(=O)N1CCN(c2nsc3ccccc23)CC1)Nc1nccs1
44 | – | ≤ 4.74 mL/min/kg | 15.7 mL/min/kg | 15.9 µg/mL (≈ 46.4 µM) | – | – | O=C1CCCN1CCCN1CCC(n2c(=O)[nH]c3ccccc32)CC1
45 | – | 122 mL/min/kg | 1600 mL/min/kg | – | – | – | Cc1cc(-c2cccc3ccnn23)nc(N2CCCC2)n1
46 | 1.02 | ≤ 4.74 mL/min/kg | – | – | 0.674 | – | CN(C(=O)c1cc(N2CCNC2=O)ccc1F)C1CCC(N)CC1 (stereo not drawn)
47 | 0.569 | 28.3 mL/min/kg | 652 mL/min/kg | 22.5 µg/mL (≈ 74.5 µM) | – | – | Cc1nn(C)c2ncnc(N(C)Cc3cccc(Cl)c3)c12
48 | 0.814 | ≤ 4.74 mL/min/kg | ≤ 10.7 mL/min/kg | – | – | – | Cc1nc2ncc3c(n2n1)CC(C)(C)CC3=O
49 | 25.1 | 464 mL/min/kg | 1250 mL/min/kg | – | 0.11 | 0.14 | CN(C)C(=O)C1(Cc2ccccc2-c2ccccc2)CCN(C(=O)c2cnn(C)c2)CC1
50 | 0.879 | ≤ 4.74 mL/min/kg | ≤ 10.7 mL/min/kg | 30.6 µg/mL (≈ 147 µM) | – | – | CCC(=O)NCc1ccnc(N(C)C)c1
51 | 0.431 | 64.7 mL/min/kg | ≤ 10.7 mL/min/kg | – | – | – | CN(CCSc1ccc2nnnn2n1)Cc1ccccc1
52 | 0.704 | 39.7 mL/min/kg | 83.1 mL/min/kg | 28.5 µg/mL (≈ 140 µM) | – | – | Cc1cc(N(C)C)nc(-n2ccnc2)n1
53 | 1.04 | ≤ 4.74 mL/min/kg | ≤ 10.7 mL/min/kg | 33.6 µg/mL (≈ 161 µM) | – | – | Cn1cc(C(=O)O)c(C2CCCCC2)n1
54 | 2.06 | 31.9 mL/min/kg | 465 mL/min/kg | 55.8 µg/mL (≈ 149 µM) | – | – | COc1ccc(-c2ccc(CN(CCN(C)C)Cc3ccncc3)cc2)cc1
55 | – | – | – | 0.5 µg/mL (≈ 1.6 µM) | – | – | O=C(Nc1nc2ccccc2[nH]1)c1ccc(-c2ccccc2)cc1
56 | 1.5 | ≤ 4.74 mL/min/kg | – | – | 0.566 | – | NC1CCCC(C(=O)N2CCC(c3c[nH]c4ncccc34)CC2)C1 (stereo not drawn)
57 | 45 | 239 mL/min/kg | 1730 mL/min/kg | 46.7 µg/mL (≈ 127 µM) | – | – | O=C(Cc1cccc2ccccc12)NCc1nnc2n1-c1ccccc1CC2
